Like-named read-outs stand apart in the source and are kept apart here.
How the values were obtained:
Tyk2 = molecular target: T1, Tyk2 (Homo sapiens, UniProt P29597); assay: Tyk2 enzyme inhibition test (LANCE method); type: biochemical; details: for inhibition at 1 µM: test compound 1 μM, read-out: Inhibitory rate (%) Tyk2 1 μM; for inhibition at 10 µM: test compound 10 μM, read-out: Inhibitory rate (%) Tyk2 10 μM
T1 construct: purchased Invitrogen
How it was run: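 LANCE TR-FRET read-out (ex 340/em 665 nm, 100 μs delay) of ULight-JAK1 phosphorylation, with no-enzyme wells as 100% inhibition. Reaction run 1 h at room temperature in pH 7.5 HEPES buffer; enzyme 375 ng/mL, substrate 300 nM and ATP 30 μM are solution concentrations before mixing.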

JAK1 = molecular target: T2, JAK1 (Homo sapiens, UniProt P23458); assay: JAK1 enzyme inhibition test (LANCE method); type: biochemical; details: for inhibition at 10 µM: read-out: Inhibitory rate (%) JAK1 10 μM; for inhibition at 1 µM: test compound 1 μM, read-out: Inhibitory rate (%) JAK1 1 μM
T2 construct: purchased Invitrogen
T2 sequence (P23458 whole entry): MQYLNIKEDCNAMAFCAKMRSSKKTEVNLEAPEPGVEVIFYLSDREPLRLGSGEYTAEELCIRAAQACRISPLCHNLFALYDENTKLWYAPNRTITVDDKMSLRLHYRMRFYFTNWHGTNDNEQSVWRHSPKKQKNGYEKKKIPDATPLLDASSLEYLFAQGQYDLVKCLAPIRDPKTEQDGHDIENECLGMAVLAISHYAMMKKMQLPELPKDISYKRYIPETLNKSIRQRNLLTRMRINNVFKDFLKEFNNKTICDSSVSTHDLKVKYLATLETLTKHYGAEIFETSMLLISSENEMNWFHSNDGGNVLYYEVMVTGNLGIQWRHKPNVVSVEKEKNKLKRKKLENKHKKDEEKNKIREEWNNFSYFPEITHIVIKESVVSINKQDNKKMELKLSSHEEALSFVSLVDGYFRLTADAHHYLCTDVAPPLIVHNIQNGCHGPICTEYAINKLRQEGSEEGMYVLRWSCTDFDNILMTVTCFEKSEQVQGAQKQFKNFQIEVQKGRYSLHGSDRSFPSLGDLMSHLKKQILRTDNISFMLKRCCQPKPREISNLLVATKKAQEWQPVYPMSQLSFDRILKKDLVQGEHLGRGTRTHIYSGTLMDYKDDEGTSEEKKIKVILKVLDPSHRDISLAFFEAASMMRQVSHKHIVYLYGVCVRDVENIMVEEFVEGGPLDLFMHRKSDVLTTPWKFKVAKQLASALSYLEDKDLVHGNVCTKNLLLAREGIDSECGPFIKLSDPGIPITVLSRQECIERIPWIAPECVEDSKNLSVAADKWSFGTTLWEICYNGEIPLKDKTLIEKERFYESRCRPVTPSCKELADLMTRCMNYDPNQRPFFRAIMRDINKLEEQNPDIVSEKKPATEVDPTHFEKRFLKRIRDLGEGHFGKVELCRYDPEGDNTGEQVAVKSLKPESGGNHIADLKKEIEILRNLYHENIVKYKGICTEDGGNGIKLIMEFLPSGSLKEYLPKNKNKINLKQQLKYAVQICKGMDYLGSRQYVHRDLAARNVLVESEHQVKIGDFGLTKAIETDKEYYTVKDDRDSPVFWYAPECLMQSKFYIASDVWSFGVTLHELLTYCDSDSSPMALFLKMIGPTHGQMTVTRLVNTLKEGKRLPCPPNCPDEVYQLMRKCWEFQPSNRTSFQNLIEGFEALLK
How it was run: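 Reactions ran 1 h at room temperature in HEPES pH 7.5/MgCl2 buffer, with ATP solution at 150 μM and JAK1 and ULight peptide solutions at 187.5 ng/mL and 300 nM. Reactions were stopped with EDTA, and phosphorylation was read by Eu antibody time-resolved fluorescence at 665 nm. Inhibition was scaled to a no-enzyme control as 100%.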

[1] = test compound 10 μM (Ex. 182-220), beside Tyk2 1 μM

T1 sequence (P29597 whole entry): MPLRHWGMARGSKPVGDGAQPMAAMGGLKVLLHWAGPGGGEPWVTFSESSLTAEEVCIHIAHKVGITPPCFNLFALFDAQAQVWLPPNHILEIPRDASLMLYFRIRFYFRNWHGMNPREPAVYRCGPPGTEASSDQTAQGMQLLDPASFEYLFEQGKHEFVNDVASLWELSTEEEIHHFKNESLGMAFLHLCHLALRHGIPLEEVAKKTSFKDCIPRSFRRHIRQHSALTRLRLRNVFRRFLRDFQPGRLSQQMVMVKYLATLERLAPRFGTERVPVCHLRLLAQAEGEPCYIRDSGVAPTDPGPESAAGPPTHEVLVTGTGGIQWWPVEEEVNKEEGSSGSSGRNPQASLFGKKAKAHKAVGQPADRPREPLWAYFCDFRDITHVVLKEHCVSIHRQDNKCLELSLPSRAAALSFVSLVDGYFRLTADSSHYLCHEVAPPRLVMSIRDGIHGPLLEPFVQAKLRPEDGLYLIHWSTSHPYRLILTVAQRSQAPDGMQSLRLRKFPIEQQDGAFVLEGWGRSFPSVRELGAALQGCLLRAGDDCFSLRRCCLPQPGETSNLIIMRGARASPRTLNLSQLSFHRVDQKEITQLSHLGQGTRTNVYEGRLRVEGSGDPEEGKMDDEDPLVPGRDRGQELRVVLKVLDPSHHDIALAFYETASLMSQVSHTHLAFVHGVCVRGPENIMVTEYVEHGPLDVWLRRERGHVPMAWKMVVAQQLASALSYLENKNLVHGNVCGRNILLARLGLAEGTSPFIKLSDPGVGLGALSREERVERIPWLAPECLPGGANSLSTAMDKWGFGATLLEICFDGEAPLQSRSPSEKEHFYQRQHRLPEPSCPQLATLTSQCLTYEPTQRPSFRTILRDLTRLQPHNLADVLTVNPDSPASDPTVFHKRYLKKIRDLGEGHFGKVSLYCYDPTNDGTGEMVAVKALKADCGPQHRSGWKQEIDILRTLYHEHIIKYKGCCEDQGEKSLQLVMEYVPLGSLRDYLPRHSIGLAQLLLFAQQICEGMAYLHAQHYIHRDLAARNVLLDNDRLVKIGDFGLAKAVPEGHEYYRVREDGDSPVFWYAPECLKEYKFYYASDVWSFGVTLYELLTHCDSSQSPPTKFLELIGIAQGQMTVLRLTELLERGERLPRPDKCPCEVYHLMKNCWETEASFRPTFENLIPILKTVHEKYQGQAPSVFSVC

Row | Structure (SMILES) | inhibition at 1 µM (Tyk2) [%] | inhibition at 10 µM (JAK1; [1]) [%] | inhibition at 1 µM (JAK1) [%] | inhibition at 10 µM (Tyk2) [%] | inhibition at 10 µM (JAK1; test compound 10 μM) [%]
1 | N#Cc1cccc(-c2nn(C3CCCC3)c3cc[nH]c(=O)c23)c1 [Example 202, 3-(1-cyclopentyl-4-oxo-4,5-dihydro-1H-pyrazolo[4,3-c]pyridin-3-yl)benzonitrile] | 87 | 80 |  |  | 
2 | N#CCNC(=O)c1cc(-c2nn(-c3c(F)cccc3F)c3c(Cl)c[nH]c(=O)c23)cs1 [Example 191, 4-(7-chloro-1-(2,6-difluorophenyl)-4-oxo-4,5-dihydro-1H-pyrazolo[4,3-c]pyridin-3-yl)-N-(cyanomethyl)thiophene-2-carboxamide] | 100 | 98 |  |  | 
3 | COC(=O)c1ccc(-c2nn(-c3c(F)cccc3F)c3cc[nH]c(=O)c23)cc1 [Example 260, methyl 4-(1-(2,6-difluorophenyl)-4-oxo-4,5-dihydro-1H-pyrazolo[4,3-c]pyridin-3-yl)benzoate] | 94 |  | 77 |  | 
4 | O=c1[nH]ccc2c1c(-c1ccc(N3CCOCC3)nc1)nn2-c1c(F)cccc1F [Example 309, 1-(2,6-difluorophenyl)-3-(6-(morpholin-4-yl)pyridin-3-yl)-1,5-dihydro-4H-pyrazolo[4,3-c]pyridin-4-one] | 99 |  | 93 |  | 
5 | N#CCc1cccc(-c2cn(C3CCCC3)c3c(C#N)c[nH]c(=O)c23)c1 [Example 109, 3-(3-(cyanomethyl)phenyl)-1-cyclopentyl-4-oxo-4,5-dihydro-1H-pyrrolo[3,2-c]pyridine-7-carbonitrile] | 94 |  | 61 |  | 
6 | O=C(O)c1cc(-c2nn(-c3c(F)cccc3F)c3cc[nH]c(=O)c23)cs1 [Example 37, 4-(1-(2,6-difluorophenyl)-4-oxo-4,5-dihydro-1H-pyrazolo[4,3-c]pyridin-3-yl)thiophene-2-carboxylic acid] | 99 |  | 99 |  | 
7 | NC(=O)c1cc(-c2cn(C3CCCC3)c3c(CO)c[nH]c(=O)c23)cs1 [Example 40, 4-(1-cyclopentyl-7-(hydroxymethyl)-4-oxo-4,5-dihydro-1H-pyrrolo[3,2-c]pyridin-3-yl)thiophene-2-carboxamide] | 78 |  | 78 |  | 
8 | N#Cc1c[nH]c(=O)c2c(-c3cnn(CC(N)=O)c3)cn(C3CCCC3)c12 [Example 98, 2-(4-(7-cyano-1-cyclopentyl-4-oxo-4,5-dihydro-1H-pyrrolo[3,2-c]pyridin-3-yl)-1H-pyrazol-1-yl)acetamide] | 97 |  | 78 |  | 
9 | Cc1ccccc1-n1nc(-c2ccc(S(N)(=O)=O)cc2)c2c(=O)[nH]ccc21 [Example 211, 4-(1-(2-methylphenyl)-4-oxo-4,5-dihydro-1H-pyrazolo[4,3-c]pyridin-3-yl)benzenesulfonamide] | 98 | 99 |  |  | 
10 | CC1(Cn2nc(-c3csc(C(N)=O)c3)c3c(=O)[nH]ccc32)COC1 [Example 141, 4-(1-((3-methyloxetan-3-yl)methyl)-4-oxo-4,5-dihydro-1H-pyrazolo[4,3-c]pyridin-3-yl)thiophene-2-carboxamide] | 92 |  | 99 |  | 
11 | CCC(COC)n1nc(-c2csc(C(N)=O)c2)c2c(=O)[nH]ccc21 (stereo not drawn) [Example 150, 4-(1-(1-methoxybutan-2-yl)-4-oxo-4,5-dihydro-1H-pyrazolo[4,3-c]pyridin-3-yl)thiophene-2-carboxamide] | 98 |  | 99 |  | 
12 | O=c1[nH]ccc2c1c(-c1ccc(N3CCOCC3)cc1)nn2-c1c(F)cc(F)cc1F [Example 308, 3-(4-(morpholin-4-yl)phenyl)-1-(2,4,6-trifluorophenyl)-1,5-dihydro-4H-pyrazolo[4,3-c]pyridin-4-one] | 98 |  | 91 |  | 
13 | NC(=O)c1ccc(-c2nn(C3CCCC3)c3cc[nH]c(=O)c23)cc1 [Example 142, 4-(1-cyclopentyl-4-oxo-4,5-dihydro-1H-pyrazolo[4,3-c]pyridin-3-yl)benzamide] | 97 |  | 96 |  | 

Other lines, results leading:

Row | inhibition at 1 µM (Tyk2) [%] | inhibition at 10 µM (JAK1; [1]) [%] | inhibition at 1 µM (JAK1) [%] | inhibition at 10 µM (Tyk2) [%] | inhibition at 10 µM (JAK1; test compound 10 μM) [%] | Structure (SMILES)
14 | 100 |  | 100 |  |  | O=C(NC1CC1)c1cc(-c2nn(C3CCCC3)c3cc[nH]c(=O)c23)cs1 [Example 156, 4-(1-cyclopentyl-4-oxo-4,5-dihydro-1H-pyrazolo[4,3-c]pyridin-3-yl)-N-cyclopropylthiophene-2-carboxamide]
15 | 94 |  | 55 |  |  | O=c1[nH]ccc2c1c(-c1cccc(CN3CCCC3)c1)nn2-c1c(F)cccc1F [Example 288, 1-(2,6-difluorophenyl)-3-(3-(pyrrolidin-1-ylmethyl)phenyl)-1,5-dihydro-4H-pyrazolo[4,3-c]pyridin-4-one]
16 | 98 |  | 96 |  |  | CC(C)(C#N)c1ccc(-c2cn(C3CCCC3)c3c(C#N)c[nH]c(=O)c23)cc1 [Example 139, 3-(4-(2-cyanopropan-2-yl)phenyl)-1-cyclopentyl-4-oxo-4,5-dihydro-1H-pyrrolo[3,2-c]pyridine-7-carbonitrile]
17 | 100 |  | 100 |  |  | NC(=O)c1cc(-c2nn(C3CCC(O)CC3)c3cc[nH]c(=O)c23)cs1 (stereo not drawn) [Example 171, 4-(1-(4-hydroxycyclohexyl)-4-oxo-4,5-dihydro-1H-pyrazolo[4,3-c]pyridin-3-yl)thiophene-2-carboxamide]
18 |  |  |  | 22 | 0 | CNC(=O)Cc1ccc(F)c(-c2nn(-c3c(F)cccc3F)c3cc[nH]c(=O)c23)c1 [Example 293, 2-(3-(1-(2,6-difluorophenyl)-4-oxo-4,5-dihydro-1H-pyrazolo[4,3-c]pyridin-3-yl)-4-fluorophenyl)-N-methylacetamide]
19 |  |  |  | 26 | -1 | CNC(=O)c1ccc(F)c(-c2nn(-c3c(F)cccc3F)c3c(Cl)c[nH]c(=O)c23)c1 [Example 271, 3-(7-chloro-1-(2,6-difluorophenyl)-4-oxo-4,5-dihydro-1H-pyrazolo[4,3-c]pyridin-3-yl)-4-fluoro-N-methylbenzamide]
20 | 99 |  | 94 |  |  | N#Cc1c[nH]c(=O)c2c1c(C1CCCC1)cn2-c1csc(C(N)=O)c1 [Example 118, 4-(4-cyano-3-cyclopentyl-7-oxo-6,7-dihydro-1H-pyrrolo[2,3-c]pyridin-1-yl)thiophene-2-carboxamide]
21 | 100 |  | 91 |  |  | O=c1[nH]cc(Cl)c2c1c(-c1cn[nH]c1)nn2-c1c(F)cccc1F [Example 177, 7-chloro-1-(2,6-difluorophenyl)-3-(1H-pyrazol-4-yl)-1,5-dihydro-4H-pyrazolo[4,3-c]pyridin-4-one]
22 | 98 |  | 98 |  |  | COC(=O)c1cc(-c2nn(C3CCCC3)c3cc[nH]c(=O)c23)cs1 [Example 12, methyl 4-(1-cyclopentyl-4-oxo-4,5-dihydro-1H-pyrazolo[4,3-c]pyridin-3-yl)thiophene-2-carboxylate]
23 | 83 |  | 14 |  |  | COC(=O)c1c[nH]c(=O)c2c(-c3ccc(C(N)=O)cc3)cn(C3CCCC3)c12 [Example 29, methyl 3-(4-carbamoylphenyl)-1-cyclopentyl-4-oxo-4,5-dihydro-1H-pyrrolo[3,2-c]pyridine-7-carboxylate]
24 | 91 |  | 46 |  |  | N#Cc1c[nH]c(=O)c2c(-c3cccc(CC(N)=O)c3)cn(C3CCCC3)c12 [Example 110, 2-(3-(7-cyano-1-cyclopentyl-4-oxo-4,5-dihydro-1H-pyrrolo[3,2-c]pyridin-3-yl)phenyl)acetamide]
25 | 99 |  | 95 |  |  | CC1(C)CCCC1n1nc(-c2ccc(N3CCOCC3)cc2)c2c(=O)[nH]ccc21 (stereo not drawn) [Example 314, 1-(2,2-dimethylcyclopentyl)-3-(4-(morpholin-4-yl)phenyl)-1,5-dihydro-4H-pyrazolo[4,3-c]pyridin-4-one]
26 | 97 |  | 94 |  |  | NC(=O)c1cc(-c2nn(C3CCCC3)c3c(Br)c[nH]c(=O)c23)cs1 [Example 280, 4-(7-bromo-1-cyclopentyl-4-oxo-4,5-dihydro-1H-pyrazolo[4,3-c]pyridin-3-yl)thiophene-2-carboxamide]
27 | 89 |  | 85 |  |  | O=c1[nH]ccc2c1c(-c1ccc3c(c1)OCO3)nn2C1CCCC1 [Example 49, 3-(1,3-benzodioxol-5-yl)-1-cyclopentyl-1,5-dihydro-4H-pyrazolo[4,3-c]pyridin-4-one]
28 | 99 |  | 79 |  |  | O=c1[nH]cc(Cl)c2c1c(-c1ccc(N3CCOCC3)cc1)nn2-c1c(F)cccc1F [Example 161, 7-chloro-1-(2,6-difluorophenyl)-3-(4-(morpholin-4-yl)phenyl)-1,5-dihydro-4H-pyrazolo[4,3-c]pyridin-4-one]
29 | 91 |  | 17 |  |  | N#Cc1c[nH]c(=O)c2c(-c3cccc(N4CCOCC4)c3)cn(C3CCCC3)c12 [Example 140, 1-cyclopentyl-3-(3-(morpholin-4-yl)phenyl)-4-oxo-4,5-dihydro-1H-pyrrolo[3,2-c]pyridine-7-carbonitrile]
30 | 100 |  | 95 |  |  | COCC(=O)N1CCN(c2ccc(-c3nn(-c4c(F)cccc4F)c4cc[nH]c(=O)c34)cc2)CC1 [Example 313, 1-(2,6-difluorophenyl)-3-(4-(4-(methoxyacetyl)piperazin-1-yl)phenyl)-1,5-dihydro-4H-pyrazolo[4,3-c]pyridin-4-one]

— patent US9371320B2, “Heterocyclic compound” (TAKEDA PHARMACEUTICAL COMPANY LIMITED, priority 2012, dated 2016)
